From patent publication US6750244B2, “Compounds active at a novel site on receptor-operated calcium channels useful for treatment of neurological disorders and diseases” (NPS Pharmaceuticals, Inc., priority 1993, dated 2004)
Where two headings read alike, the source gives them in different places. Marks after values point to notes of the source that are not given here.

Key:
[1] = test system: induction of LTP; set-up: species or system rat; details: for induction of LTP (p<0.05): slices superfused 30-60 min
[2] = test system: NMDA receptor; test: Inhibition of NMDA/glycine-induced increases in intracellular calcium in cultured rat cerebellar granule cells (RCGC); assay type: cell-based; details: NMDA/glycine-induced increases in intracellular calcium, cultured rat cerebellar granule cells; read-out: IC50 (μM) vs. NMDA
[3] = test system: NMDA receptor-ionophore complex (site labeled by [3H]MK-801); test: Inhibition of [3H]MK-801 binding in rat cortical/hippocampal washed membrane preparations; details: for IC50: read-out: IC50 (μM) vs. [3H]MK-801, rat cortical/hippocampal washed membranes
[4] = test system: sound-induced seizures; test: Sound-induced seizures in Frings mice (reflex epilepsy); assay type: in vivo; details: for ED50: Mus musculus, Frings mice
[5] = test system: motor performance; test: Acute motor impairment (rotorod) in mice; details: Frings mice, i.c.v. injection
Description: (§1) In this assay, Frings and CF1 mice were injected with test compound and placed on a knurled rod which rotated at a speed of 6 rpm. The ability of the mice to maintain equilibrium for long periods of time was determined; those mice that were unable to maintain equilibrium on the rotorod for 1 min in each of 3 trials were considered impaired.

[6] = test system: NMDA receptor; details: rat hippocampal slices
Description: Glutamate-mediated transmission at synapses of Schaffer collateral fibers and CA1 pyramidal cells was measured in slices of rat brain containing the hippocampus. This assay measures electrophysiologically the postsynaptic depolarization caused by the presynaptic release of glutamate, and can readily distinguish synaptic transmission mediated by NMDA or AMPA receptors.

[7] = test system: mean arterial blood pressure; details: for no significant cardiovascular activity in anesthetized rats at doses up to: i.v.
[8] = test system: focal ischemic stroke; test: Rat model of focal ischemic stroke (vessel occlusion); assay type: in vivo, rats; details: i.p. 2 mg/kg 30 min prior to vessel occlusion and 2 mg/kg 3 hr post-occlusion
[9] = target: T1, dopamine uptake site (Cavia porcellus, UniProt H0WCX4); test: Dopamine uptake binding assay: [3H]WIN-35,428 binding to guinea pig striatal membranes
T1 construct: from tissue; host or cells: guinea pig striatal membranes (per the assay title)
T1 sequence (H0WCX4 1-619): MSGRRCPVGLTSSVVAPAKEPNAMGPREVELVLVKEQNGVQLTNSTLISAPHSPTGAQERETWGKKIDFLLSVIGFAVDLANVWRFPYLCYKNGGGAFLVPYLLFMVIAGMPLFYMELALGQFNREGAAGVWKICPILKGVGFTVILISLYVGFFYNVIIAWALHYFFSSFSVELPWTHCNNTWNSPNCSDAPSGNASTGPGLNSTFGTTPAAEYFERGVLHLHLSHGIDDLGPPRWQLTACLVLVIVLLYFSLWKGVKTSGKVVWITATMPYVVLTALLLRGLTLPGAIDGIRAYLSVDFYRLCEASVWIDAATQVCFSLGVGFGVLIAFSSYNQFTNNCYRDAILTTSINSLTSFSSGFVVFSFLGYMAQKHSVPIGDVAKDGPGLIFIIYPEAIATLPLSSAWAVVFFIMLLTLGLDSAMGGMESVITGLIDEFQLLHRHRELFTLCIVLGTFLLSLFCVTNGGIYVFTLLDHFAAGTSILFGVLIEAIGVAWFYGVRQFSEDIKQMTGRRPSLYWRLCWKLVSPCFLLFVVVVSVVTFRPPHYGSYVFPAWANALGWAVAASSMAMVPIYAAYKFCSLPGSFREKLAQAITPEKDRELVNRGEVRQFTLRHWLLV

[10] = test system: central muscarinic cholinergic receptor; assay type: binding, rat
[11] = in vivo; details: mouse, in vivo
Description: as §1

[12] = test system: T2, L-type calcium channel; test: Inhibition of KCl depolarization-induced increases in intracellular calcium in cultured rat cerebellar granule cells; assay type: cell-based; details: cultured rat cerebellar granule cells; read-out: L-type calcium channel: estimated IC50, KCl depolarization-induced increases in intracellular calcium
T2 construct: L-type calcium channel: estimated IC50, KCl depolarization-induced increases in intracellular calcium; other: cultured
Source text: The ability of arylalkylamines to inhibit dihydropyridine-sensitive Ca^2+ channels was examined in cerebellar granule cells and a rat aortic smooth muscle cell line, A7r5 cells.

[13] = target: T3, serotonin uptake site (Rattus norvegicus, UniProt P31652); test: Serotonin uptake binding assay: [3H]citalopram binding to rat forebrain membranes
T3 construct: from tissue; host or cells: rat forebrain membranes (per the assay title)
T3 sequence (P31652 whole entry): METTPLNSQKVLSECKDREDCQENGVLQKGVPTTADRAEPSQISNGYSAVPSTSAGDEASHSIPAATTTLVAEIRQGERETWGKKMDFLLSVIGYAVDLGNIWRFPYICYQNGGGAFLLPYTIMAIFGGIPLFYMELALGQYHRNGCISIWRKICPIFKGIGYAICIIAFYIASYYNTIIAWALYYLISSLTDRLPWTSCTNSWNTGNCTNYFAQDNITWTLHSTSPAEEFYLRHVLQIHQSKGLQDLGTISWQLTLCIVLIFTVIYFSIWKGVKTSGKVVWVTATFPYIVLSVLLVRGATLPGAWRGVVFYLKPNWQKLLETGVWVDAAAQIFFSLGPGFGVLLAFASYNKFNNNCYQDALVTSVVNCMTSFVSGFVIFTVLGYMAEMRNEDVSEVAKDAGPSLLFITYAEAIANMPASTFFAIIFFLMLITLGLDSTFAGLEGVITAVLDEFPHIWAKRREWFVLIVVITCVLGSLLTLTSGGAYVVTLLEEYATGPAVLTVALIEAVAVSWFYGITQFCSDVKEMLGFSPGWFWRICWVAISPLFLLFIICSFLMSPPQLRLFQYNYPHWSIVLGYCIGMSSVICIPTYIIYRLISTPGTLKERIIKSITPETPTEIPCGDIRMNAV

[14] = target: T4, norepinephrine uptake site (Rattus norvegicus, UniProt Q63380); test: Norepinephrine uptake binding assay: [3H]desipramine binding to rat cortical membranes
T4 construct: from tissue; host or cells: rat cortical membranes (per the assay title)
T4 sequence (Q63380 1-617): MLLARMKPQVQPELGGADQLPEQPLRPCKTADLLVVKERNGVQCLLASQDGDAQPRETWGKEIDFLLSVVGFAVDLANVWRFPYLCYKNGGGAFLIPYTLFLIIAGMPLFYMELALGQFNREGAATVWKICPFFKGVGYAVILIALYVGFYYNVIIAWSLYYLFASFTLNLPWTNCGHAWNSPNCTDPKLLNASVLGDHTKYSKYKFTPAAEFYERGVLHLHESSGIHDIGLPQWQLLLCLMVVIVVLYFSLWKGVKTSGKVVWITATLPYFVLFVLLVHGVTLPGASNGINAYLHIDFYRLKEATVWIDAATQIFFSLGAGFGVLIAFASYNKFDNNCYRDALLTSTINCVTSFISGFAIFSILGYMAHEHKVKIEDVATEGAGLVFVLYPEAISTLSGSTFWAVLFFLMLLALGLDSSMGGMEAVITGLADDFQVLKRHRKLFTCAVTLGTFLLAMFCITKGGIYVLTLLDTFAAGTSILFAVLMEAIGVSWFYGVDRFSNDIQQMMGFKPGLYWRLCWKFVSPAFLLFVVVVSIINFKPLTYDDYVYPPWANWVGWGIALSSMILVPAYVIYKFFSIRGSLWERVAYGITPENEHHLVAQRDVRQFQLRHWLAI

[15] = test system: seizure threshold; test: i.v. Metrazol test (seizure threshold) in mice; assay type: in vivo
[16] = test system: behavior; test: Behavioral effects in conscious beagle dogs
[17] = test system: neuronal vacuolization
[18] = test system: temporary focal ischemia; test: Temporary focal cerebral ischemia (middle cerebral artery occlusion, suture withdrawn after 2 hr); assay type: in vivo, rat
Description: In a fourth model of focal cerebral ischemia in the rat, the middle cerebral artery was temporarily occluded by passing a small piece of suture thread through the carotid artery to the region of the middle cerebral artery. The suture thread was withdrawn after an ischemic period of 2 hr. Core body temperature was maintained at 37° C. […]

[19] = test system: focal ischemia; test: Photothrombotic (Rose Bengal) model of focal cerebral ischemia; assay type: in vivo, rat; details: 10 mg/kg i.p. at 15 min, 3 hr, and again 6 hr post-occlusion
Source text: In a third model of focal cerebral ischemia in the rat, an ischemic infarct was produced by a photothrombotic method using the dye Rose Bengal.

[20] = test system: mean arterial pressure, heart rate, ECG; test: Cardiovascular activity in conscious beagle dogs
[21] = test system: maximal electroshock-induced seizures; test: Maximal electroshock-induced seizures in mice; assay type: in vivo; details: Mus musculus, ip; mice
[22] = test system: behavior; test: Behavioral effects in conscious male Wistar rats
[23] = 3 mg/kg i.v. (60 sec bolus injection)
[24] = 10 mg/kg i.v. (60 sec bolus injection)

NC(CCCP(=O)(O)O)C(=O)O (centres unmarked) [AP5, reference compound]
induction of LTP (p<0.05) [1]: significantly blocked
IC50 [2]: 15 µM

NC(CCCCCP(=O)(O)O)C(=O)O (centres unmarked) [AP7, reference compound]
induction of LTP (p<0.05) [1]: significantly blocked

NCCCNCCCNCCCNC(=O)Cc1c[nH]c2ccc(F)cc12 [Compound 9]
LTP Assay (block of the induction of LTP) ([1]; at 300 μM): no block
% inhibition of [3H]MK-801 binding at the stated concentration (IC50 study incomplete) ([3]; at 100 μM): (10% at 100 μM)^d
IC50 [3]: > 100 µM
IC50, prevention of sound-induced seizures ([4]; intracerebroventricular (i.c.v.) injection): 4.77 µg
TD50, acute motor impairment [5]: 14.8 µg
Suppression of NMDA Receptor-Mediated Synaptic Transmission (concentration which suppresses) [6]: 10 to 100 µM
Drop in Mean Arterial Blood Pressure ([7]; 4.5 μmoles/kg i.v., rats): 75 mm Hg at
Drop in Mean Arterial Blood Pressure: duration ([7]; 4.5 μmoles/kg i.v., rats): i.v., 90 min
duration of the hypotensive effect ([7]; systemic administration in rats): approximately 30 min
IC50 [2]: 1.2 µM

CC(CN)C(c1cccc(Cl)c1)c1cccc(Cl)c1 (centres unmarked) [Compound 46]
IC50 [3]: 5.2 µM
neuroprotectant activity in a rat model of focal ischemic stroke [8]: no significant neuroprotectant activity
ED50 ([4]; ip): 25 mg/kg
Monoamine uptake binding assays: dopamine uptake binding assay, percent block ([9]; at 0.1 μM): 40% at
Monoamine uptake binding assays: dopamine uptake binding assay, percent block ([9]; at 10 μM): 0.1^f97% at
Central muscarinic cholinergic receptor: percent block of [3H]QNB binding ([10]; at 0.1 μM): 33% at.
Central muscarinic cholinergic receptor: percent block of [3H]QNB binding ([10]; at 10 μM): 0.189% at
TD50 ([11]; Frings, ip): 18 to 21 mg/kg
IC50 [12]: 676 nM
Monoamine uptake binding assays: serotonin uptake binding assay, percent block ([13]; at 0.1 μM): 10^g10% at
Monoamine uptake binding assays: serotonin uptake binding assay, percent block ([13]; at 10 μM): 0.1^h75% at
IC50 [2]: 0.013 µM
Monoamine uptake binding assays: norepinephrine uptake binding assay, percent block ([14]; at 0.1 μM): 10^f7% at
Monoamine uptake binding assays: norepinephrine uptake binding assay, percent block ([14]; at 10 μM): 0.1^g64% at

Cc1ccc(F)cc1C(CCN)c1cc(F)ccc1C [Compound 58, 3,3-bis(3-fluoro-6-methylphenyl)-1-propylamine]
IC50 [3]: 0.203 µM
neuroprotectant activity in a rat model of focal ischemic stroke [8]: no significant neuroprotectant activity
ED50 ([4]; ip): 0.9 mg/kg
Monoamine uptake binding assays: dopamine uptake binding assay, percent block ([9]; at 0.1 μM): 0% at
Monoamine uptake binding assays: dopamine uptake binding assay, percent block ([9]; at 10 μM): 0.1^f45% at
Central muscarinic cholinergic receptor: percent block of [3H]QNB binding ([10]; at 0.1 μM): 1% at
Central muscarinic cholinergic receptor: percent block of [3H]QNB binding ([10]; at 10 μM): 0.148% at
TD50 ([11]; Frings, ip): 14.5 mg/kg
IC50 [12]: 2600 nM
Monoamine uptake binding assays: serotonin uptake binding assay, percent block ([13]; at 0.1 μM): 10^g27% at
Monoamine uptake binding assays: serotonin uptake binding assay, percent block ([13]; at 10 μM): 0.1^h95% at
no significant cardiovascular activity in anesthetized rats at doses up to [7]: up to 2 mg/kg
IC50 [2]: 0.028 µM
Monoamine uptake binding assays: norepinephrine uptake binding assay, percent block ([14]; at 0.1 μM): 10^f1% at
Monoamine uptake binding assays: norepinephrine uptake binding assay, percent block ([14]; at 10 μM): 0.1^g67% at

CCNCCC(c1cccc(F)c1)c1cccc(F)c1 [Compound 59, N-ethyl-3,3-bis(3-fluorophenyl)-1-propylamine]
seizure threshold, i.v. Metrazol test ([15]; 11.7 mg/kg i.p.): a reduction in seizure threshold
IC50 [3]: 0.453 µM
neuroprotectant activity in a rat model of focal ischemic stroke [8]: no significant neuroprotectant activity
ED50 ([4]; ip): 2.7 mg/kg
Monoamine uptake binding assays: dopamine uptake binding assay, percent block ([9]; at 0.1 μM): 2% at
Monoamine uptake binding assays: dopamine uptake binding assay, percent block ([9]; at 10 μM): 0.1^f78% at
Central muscarinic cholinergic receptor: percent block of [3H]QNB binding ([10]; at 0.1 μM): 9% at
Central muscarinic cholinergic receptor: percent block of [3H]QNB binding ([10]; at 10 μM): 0.187% at
TD50 ([11]; Frings, ip): 7.8 mg/kg
Monoamine uptake binding assays: serotonin uptake binding assay, percent block ([13]; at 0.1 μM): 10^g14% at
Monoamine uptake binding assays: serotonin uptake binding assay, percent block ([13]; at 10 μM): 0.1^h86% at
no significant cardiovascular activity in anesthetized rats at doses up to [7]: up to 10 mg/kg
IC50 [2]: 0.272 µM
Monoamine uptake binding assays: norepinephrine uptake binding assay, percent block ([14]; at 0.1 μM): 10^f7% at
Monoamine uptake binding assays: norepinephrine uptake binding assay, percent block ([14]; at 10 μM): 0.1^g51% at

CNCCC(c1cccc(F)c1)c1cccc(F)c1 [Compound 60, N-methyl-3,3-bis(3-fluorophenyl)-1-propylamine]
behavioral effects [16, 23]: a slight increase in respiratory rate
behavioral effects [16, 24]: dilated pupils, whole body tremors, salivation, and urination
behavioral effects ([16]; 0.3 and 1 mg/kg i.v. (60 sec bolus injection)): no significant behavioral effects
seizure threshold, i.v. Metrazol test ([15]; 1 and 4 mg/kg i.p.): no effect on seizure threshold
seizure threshold, i.v. Metrazol test ([15]; 8 and 17 mg/kg i.p.): a reduction in seizure threshold
IC50 [3]: 0.641 µM
neuroprotectant activity in a rat model of focal ischemic stroke [8]: significant neuroprotectant activity
ED50 ([4]; ip): 4.4 mg/kg
ED50 ([4]; oral): 10 mg/kg
dose without neuronal vacuolization ([17]; i.p.): 20 mg/kg
dose without neuronal vacuolization ([17]; i.v.): 10 mg/kg
Central muscarinic cholinergic receptor: percent block of [3H]QNB binding ([10]; at 0.1 μM): 13% at
Central muscarinic cholinergic receptor: percent block of [3H]QNB binding ([10]; at 10 μM): 0.193% at
TD50 ([11]; Frings, ip): 9.2 mg/kg
TD50 ([11]; Frings, po): 25.6 mg/kg
TD50 ([11]; ip): 17.3 mg/kg
IC50 [12]: 2300 nM
IC50 ([13]; read-out: Monoamine uptake binding assays: serotonin uptake binding assay, IC50): 68 nM
neuroprotectant activity in a rat model of temporary focal ischemic stroke ([18]; i.p. or i.v. 1 mg/kg 2 hr and again 8 hr post-occlusion): significant neuroprotectant activity
neuroprotectant activity in a rat model of temporary focal ischemic stroke ([18]; i.v. 1 mg/kg 2 hr post-occlusion): significant neuroprotectant activity
IC50 [2]: 0.416 µM
neuroprotectant activity, photothrombotic model [19]: no significant neuroprotectant activity
cardiovascular activity ([20]; 0.3 mg/kg i.v. (60 sec bolus injection)): no significant cardiovascular activity
mean arterial pressure ([20]; 1 mg/kg i.v. (60 sec bolus injection)): transient increases in mean arterial pressure
heart rate [20, 23]: transient increases in heart rate
mean arterial pressure [20, 23]: transient increases in mean arterial pressure
heart rate [20, 24]: transient increases in heart rate
mean arterial pressure [20, 24]: larger magnitude and longer duration effects
changes in the ECG ([20]; doses up to 10 mg/kg i.v. (60 sec bolus injection)): no significant changes in the ECG
Monoamine uptake binding assays: norepinephrine uptake binding assay, percent block ([14]; at 0.1 μM): 16%
Monoamine uptake binding assays: norepinephrine uptake binding assay, percent block ([14]; at 10 μM): at 0.1^g64%
IC50 ([14]; read-out: Monoamine uptake binding assays: norepinephrine uptake binding assay, IC50): 914 nM
ED50 [21]: 8.17 mg/kg
behavioral effects ([22]; 16 mg/kg i.v.): Straub tail, convulsions, and death
behavioral effects ([22]; dose of a mg/kg i.v.): excitation, stereotypies, increased reactivity to touch, increased muscle tone, and tremor
behavioral effects ([22]; doses up to 4 mg/kg i.v.): no significant behavioral effects

N[C@H]1CCCC1C(c1cccc(F)c1)c1cccc(F)c1 (some centres unmarked) [Compound 63]
IC50 [3]: 0.245 µM
Monoamine uptake binding assays: dopamine uptake binding assay, percent block ([9]; at 0.1 μM): 64% at
Monoamine uptake binding assays: dopamine uptake binding assay, percent block ([9]; at 10 μM): 0.1^f98% at
Central muscarinic cholinergic receptor: percent block of [3H]QNB binding ([10]; at 0.1 μM): 11% at
Central muscarinic cholinergic receptor: percent block of [3H]QNB binding ([10]; at 10 μM): 0.181% at
IC50 [12]: 1900 nM
Monoamine uptake binding assays: serotonin uptake binding assay, percent block ([13]; at 0.1 μM): 10^g13% at
Monoamine uptake binding assays: serotonin uptake binding assay, percent block ([13]; at 10 μM): 0.1^h85% at
IC50 [2]: 0.093 µM
Monoamine uptake binding assays: norepinephrine uptake binding assay, percent block ([14]; at 0.1 μM): 10^f7% at
Monoamine uptake binding assays: norepinephrine uptake binding assay, percent block ([14]; at 10 μM): 0.1^g76% at

NC(=O)CC(c1cccc(F)c1)c1cccc(F)c1 [Compound 151, 3,3-Bis(3-fluorophenyl)propanamide]
seizure threshold, i.v. Metrazol test ([15]; 36.5 and 108 mg/kg i.p.): a significant increase in seizure threshold
IC50 [3]: > 100 µM
TD50 ([11]; ip): 108 mg/kg
IC50 [2]: 54.9 µM
ED50 [21]: 36.5 mg/kg

CC(C(O)c1ccc(O)cc1)N1CCC(Cc2ccccc2)CC1 (centres unmarked) [ifenprodil, reference compound]
induction of LTP (p<0.05) [1]: significantly blocked
